Here are results for one cell line from the supplement of paper PMC10307832.

Common to all, as to assay: relative viability (nuclei count vs DMSO), 5 days (fraction); higher = more cells survive
Compound in test [1]: O=c1ncccn1[C@@H]1O[C@H](CO)[C@@H](O)[C@H]1O [Zebularine] + COc1cccc2cc(-c3nc([C@H]4CC[C@H](C(=O)O)CC4)n4ncnc(N)c34)[nH]c12 [OSI-027] (partner 0.5 µM)
Put shortly: (§1)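 Medians of duplicate plates are given as relative viability. That measure is the nuclei count in treated wells divided by the count in vehicle wells. Counts were taken on 4× images of lung cancer cell lines in 1536-well plates, 5 days after pin-tool dosing the day after seeding with one drug alone or a fixed anchor-drug dose plus five library-drug doses (not always all listed) in √10 steps.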

Compound in test [2]: CC(C)CCN1c2nc(Nc3cc(F)c(O)c(F)c3)ncc2N(C)C(=O)C1C [BI-D1870] + Cc1nc(Nc2ncc(C(=O)Nc3c(C)cccc3Cl)s2)cc(N2CCN(CCO)CC2)n1 [Dasatinib] (partner 0.075 µM)
Put shortly:
as §1

Compound in test [3]: O=c1ncccn1[C@@H]1O[C@H](CO)[C@@H](O)[C@H]1O [Zebularine] + CC(=O)Nc1cccc(-n2c(=O)n(C3CC3)c(=O)c3c(Nc4ccc(I)cc4F)n(C)c(=O)c(C)c32)c1 [Trametinib] (partner 0.02 µM)
Put shortly:
as §1

Compound in test [4]: O=c1ncccn1[C@@H]1O[C@H](CO)[C@@H](O)[C@H]1O [Zebularine] + CC1(C)CCC(c2ccc(Cl)cc2)=C(CN2CCN(c3ccc(C(=O)NS(=O)(=O)c4ccc(N[C@H](CCN5CCOCC5)CSc5ccccc5)c(S(=O)(=O)C(F)(F)F)c4)cc3)CC2)C1 [Navitoclax] (partner 0.5 µM)
In short, it runs like this:
as §1

For UMC-11, the relative viability in test [1] (first compound 1 µM) turned out to be 0.544; in test [1] (first compound 3.162 µM) it was 0.478; in test [1] (first compound 10 µM), 0.297; in test [1] (first compound 31.62 µM), 0.473; in test [1] (first compound 100 µM), 0.407; in test [2] (first compound 0.04 µM), 0.579. Moreover, the relative viability in test [2] (first compound 0.1265 µM) is 0.454; in test [2] (first compound 0.4 µM) it was 0.481; in test [2] (first compound 1.265 µM), 0.393; in test [2] (first compound 4 µM), 0.142; in test [3] (first compound 1 µM), 0.709; in test [3] (first compound 3.162 µM), 0.754. Besides, the relative viability came out at 0.422 in test [3] (first compound 10 µM); 0.644 in test [3] (first compound 31.62 µM); 0.376 in test [3] (first compound 100 µM); 0.316 in test [4] (first compound 1 µM); 0.328 in test [4] (first compound 3.162 µM); 0.265 in test [4] (first compound 10 µM). In addition, the results for the relative viability in test [4] (first compound 31.62 µM) and in test [4] (first compound 100 µM) were 0.344 and 0.238, respectively.
